Experimental data reported in patent USRE30241E, “Esters of 3-(hydroxy or hydroxymethyl)-4-hydroxyphenyl aminomethyl ketones” (Sterling Drug Inc., priority 1970, dated 1980).
Read-outs that look alike come from different tables or passages of the source.

Assays:
Format in all cases: in vivo
[1] = test system: carbachol- or histamine-induced bronchoconstriction; assay: Bronchodilator Test Method I, anesthetized dog, intravenous activity; settings: Canis lupus familiaris, read-out: Bronchodilatation; for inhibition in vivo at 0.005 mg/kg: 5 mcg/kg i.v.; for inhibition in vivo at 0.02 mg/kg: 20 mcg/kg i.v.; for inhibition in vivo at 0.08 mg/kg: 80 mcg/kg i.v.; for inhibition in vivo at 0.0013 mg/kg: 1.3 mcg/kg i.v.; for inhibition in vivo at 0.0065 mg/kg: 6.5 mcg/kg i.v.; for inhibition in vivo at 0.0325 mg/kg: 32.5 mcg/kg i.v.; for inhibition in vivo at 0.00025 mg/kg: 0.25 mcg/kg i.v.; for inhibition in vivo at 0.001 mg/kg: 1 mcg/kg i.v.; for inhibition in vivo at 0.004 mg/kg: 4 mcg/kg i.v.
Procedure, shortened: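 Pentobarbital-anesthetized (30 mg/kg i.v.), open-chest, artificially ventilated dogs were given i.v. carbachol (4-6 µg/kg) or histamine diphosphate (35-45 µg/kg). Test compound was given i.v. mixed with, after, or 1-10 min before the constrictor.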

[2] = test system: carbachol- or histamine-induced bronchoconstriction; assay: Bronchodilator Test Method I, anesthetized dog, intraduodenal activity; settings: Canis lupus familiaris, read-out: Bronchodilation; for inhibition in vivo at 0.025 mg/kg: 25 mcg/kg (salt) intraduodenal; for inhibition in vivo at 0.05 mg/kg: 50 mcg/kg (salt) intraduodenal
Procedure, shortened: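 Pentobarbital-anesthetized (30 mg/kg i.v.) open-chest dogs of 9-18 kg, artificially ventilated; airway pressure recorded via tracheal cannula transducer. Test solution injected intraduodenally; from 5 min, i.v. carbachol (4-6 μg/kg) or histamine diphosphate (35-45 μg/kg) challenges every 30-60 min gauged degree and duration of bronchodilation.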

[3] = test system: heart rate; assay: Cardiovascular studies: effect on the heart rate in the anesthetized dog
Procedure: The effect of a rapid intravenous injection on the heart rate the heart rate was conducted in anesthetized dogs under normal respiration. A few open-chest dogs were also tested. Increase in heart rate was measured by using an electrocardiograph attached to the dog. Readings were taken every 0.5-1 minute for the first 10 minutes and every 2-5 minutes thereafter until recovery. In some cases, several doses and more than one compound were tested alternately in the same dog. The blood pressure effect was simultaneously recorded.

## CC(C)(C)NCC(O)c1ccc(OC(=O)C(C)(C)C)c(COC(=O)C(C)(C)C)c1 (stereo not drawn) [Example 135, 3-(pivalyloxymethyl)-4-(pivaloxy)-alpha-(tert-butylaminomethyl)benzyl alcohol methanesulfonate]
[1]; 5 min, 5 min
  inhibition in vivo at 0.005 mg/kg: 18%
  inhibition in vivo at 0.02 mg/kg: 30%
  inhibition in vivo at 0.08 mg/kg: 38%
[1]; 0.5 h, 30 min
  inhibition in vivo at 0.005 mg/kg: 32%
  inhibition in vivo at 0.02 mg/kg: 49%
  inhibition in vivo at 0.08 mg/kg: 64%
[1]; 1 h, 60 min
  inhibition in vivo at 0.005 mg/kg: 36%
  inhibition in vivo at 0.02 mg/kg: 50%
  inhibition in vivo at 0.08 mg/kg: 62%
[1]; 2 h, 120 min
  inhibition in vivo at 0.005 mg/kg: 26%
  inhibition in vivo at 0.02 mg/kg: 56%
  inhibition in vivo at 0.08 mg/kg: 66%
[1]; 3 h, 180 min
  inhibition in vivo at 0.02 mg/kg: 50%
  inhibition in vivo at 0.08 mg/kg: 62%
[1]; 4 h, 240 min
  inhibition in vivo at 0.02 mg/kg: 45%
  inhibition in vivo at 0.08 mg/kg: 56%
[1]; 5 h, 300 min
  inhibition in vivo at 0.02 mg/kg: 36%
  inhibition in vivo at 0.08 mg/kg: 49%
[2]; 5 min, 5 min
  inhibition in vivo at 0.025 mg/kg: 18%
  inhibition in vivo at 0.05 mg/kg: 31%
[2]; 0.5 h, 30 min
  inhibition in vivo at 0.05 mg/kg: 56%
[2]; 1 h, 60 min
  inhibition in vivo at 0.025 mg/kg: 56%
  inhibition in vivo at 0.05 mg/kg: 74%
[2]; 2 h, 120 min
  inhibition in vivo at 0.025 mg/kg: 55%
  inhibition in vivo at 0.05 mg/kg: 73%
[2]; 3 h, 180 min
  inhibition in vivo at 0.025 mg/kg: 45%
  inhibition in vivo at 0.05 mg/kg: 64%
[2]; 4 h, 240 min
  inhibition in vivo at 0.025 mg/kg: 34%
  inhibition in vivo at 0.05 mg/kg: 51%
[2]; 5 h, 300 min
  inhibition in vivo at 0.025 mg/kg: 27%
  inhibition in vivo at 0.05 mg/kg: 37%
[2]; 6 h, after 6 hrs.
  inhibition in vivo at 0.05 mg/kg: 36%
[3]; 0.25 mcg/kg (salt) i.v.
  Mean Maximal Increase in the Heart Rate: 5 Beats/Minute
[3]; 1 mcg/kg (salt) i.v.
  Mean Maximal Increase in the Heart Rate: 10 Beats/Minute
[3]; 8 mcg/kg (salt) i.v.
  Mean Maximal Increase in the Heart Rate: 17 Beats/Minute

## CC(=O)Oc1ccc(C(O)CNC(C)(C)C)cc1OC(=O)C12CC3CC(CC(C3)C1)C2 (stereo not drawn) [Example 148, 3-(1-adamantanecarbonyloxy)-4-acetoxy-alpha-(tert-butylaminomethyl)benzyl alcohol methanesulfonate]
[1]; 5 min, 5 min
  inhibition in vivo at 0.0013 mg/kg: 21%
  inhibition in vivo at 0.0065 mg/kg: 47%
  inhibition in vivo at 0.0325 mg/kg: 95%
[1]; 0.5 h, 30 min
  inhibition in vivo at 0.0013 mg/kg: 1%
  inhibition in vivo at 0.0065 mg/kg: 30%
  inhibition in vivo at 0.0325 mg/kg: 66%
[1]; 1 h, 60 min
  inhibition in vivo at 0.0013 mg/kg: 10%
  inhibition in vivo at 0.0065 mg/kg: 23%
  inhibition in vivo at 0.0325 mg/kg: 54%
[1]; 2 h, 120 min
  inhibition in vivo at 0.0013 mg/kg: 16%
  inhibition in vivo at 0.0065 mg/kg: 15%
  inhibition in vivo at 0.0325 mg/kg: 39%
[1]; 3 h, 180 min
  inhibition in vivo at 0.0065 mg/kg: 13%
  inhibition in vivo at 0.0325 mg/kg: 28%
[1]; 4 h, 240 min
  inhibition in vivo at 0.0325 mg/kg: 14%
[3]; 6.5 mcg/kg (salt) i.v.
  Mean Maximal Increase in the Heart Rate: 32 Beats/Minute
[3]; 32.5 mcg/kg (salt) i.v.
  Mean Maximal Increase in the Heart Rate: 58 Beats/Minute

## CC(C)(C)NCC(O)c1ccc(O)c(CO)c1 (stereo not drawn) [Ref. Cpd. III, 3-Hydroxymethyl-4-hydroxy-alpha-(tert-butylaminomethyl)benzyl alcohol, reference compound]
[1]; 5 min, 5 min
  inhibition in vivo at 0.00025 mg/kg: 18%
  inhibition in vivo at 0.001 mg/kg: 31%
  inhibition in vivo at 0.004 mg/kg: 65%
[1]; 0.5 h, 30 min
  inhibition in vivo at 0.00025 mg/kg: 0%
  inhibition in vivo at 0.001 mg/kg: 14%
  inhibition in vivo at 0.004 mg/kg: 24%
[1]; 1 h, 60 min
  inhibition in vivo at 0.001 mg/kg: 3%
  inhibition in vivo at 0.004 mg/kg: 18%
[1]; 2 h, 120 min
  inhibition in vivo at 0.004 mg/kg: 0%
[2]; 10 min, 10 min
  inhibition in vivo at 0.025 mg/kg: 45%
  inhibition in vivo at 0.05 mg/kg: 13%
[2]; 0.5 h, 30 min
  inhibition in vivo at 0.05 mg/kg: 42%
[2]; 1 h, 60 min
  inhibition in vivo at 0.025 mg/kg: 51%
  inhibition in vivo at 0.05 mg/kg: 56%
[2]; 2 h, 120 min
  inhibition in vivo at 0.025 mg/kg: 43%
  inhibition in vivo at 0.05 mg/kg: 71%
[2]; 3 h, 180 min
  inhibition in vivo at 0.025 mg/kg: 0%
  inhibition in vivo at 0.05 mg/kg: 53%
[2]; 4 h, 240 min
  inhibition in vivo at 0.05 mg/kg: 34%
[2]; 5 h, 300 min
  inhibition in vivo at 0.05 mg/kg: 6%
[3]; 0.25 mcg/kg (salt) i.v.
  Mean Maximal Increase in the Heart Rate: 9 Beats/Minute
[3]; 1 mcg/kg (salt) i.v.
  Mean Maximal Increase in the Heart Rate: 15 Beats/Minute
[3]; 4 mcg/kg (salt) i.v.
  Mean Maximal Increase in the Heart Rate: 34 Beats/Minute
